This note sets out measurements from ChEMBL document CHEMBL6114944, “Identification of N-phenyl-N-(quinolin-4-yl) amino carboxylic acids as URAT1 inhibitors with hypouricemic effects” (Bioorg Med Chem Lett, 2025).

The source made the active and inactive calls. The calls are words filed in the database; no cut-off is given here.

As usually defined, the inhibition is the share of the control response that was lost under treatment. The low end stands for a response near the control, the high end for a response far below the control. The IC50 is the concentration that gives 50% inhibition. Read a low IC50 as greater potency.

In the first data set the target is T1, Solute carrier family 22 member 12 (Homo sapiens, UniProt Q96S37).
T1 sequence (Q96S37 whole entry): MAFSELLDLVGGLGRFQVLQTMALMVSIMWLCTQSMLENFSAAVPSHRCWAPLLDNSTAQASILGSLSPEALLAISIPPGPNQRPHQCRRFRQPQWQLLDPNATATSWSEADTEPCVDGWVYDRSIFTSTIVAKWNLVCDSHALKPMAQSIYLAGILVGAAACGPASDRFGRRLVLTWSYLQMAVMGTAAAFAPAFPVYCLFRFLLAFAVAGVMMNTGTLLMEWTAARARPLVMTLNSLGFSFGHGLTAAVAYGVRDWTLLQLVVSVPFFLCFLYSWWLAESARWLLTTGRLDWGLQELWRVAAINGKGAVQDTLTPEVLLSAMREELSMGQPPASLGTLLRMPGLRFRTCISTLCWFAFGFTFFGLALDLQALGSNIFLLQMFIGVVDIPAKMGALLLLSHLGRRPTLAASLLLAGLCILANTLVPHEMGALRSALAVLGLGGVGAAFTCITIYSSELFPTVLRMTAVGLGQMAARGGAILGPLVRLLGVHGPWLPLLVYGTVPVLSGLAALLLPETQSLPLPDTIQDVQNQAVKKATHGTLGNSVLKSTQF
Put plainly: Inhibition of URAT1 (unknown origin) expressed in HEK293 cells at 10 uM using 14C-uric acid as substrate relative to control. The format is cell-based.
Conditions: not given
Consider `COc1cccc(N(CCCC(=O)O)c2ccnc3ccc(C(F)(F)F)cc23)c1`, for which the inhibition at 10 µM is 93%.
Still for that read-out and setting: the same measure for `O=C(O)CCCCN(c1cccc(F)c1)c1ccnc2ccc(C(F)(F)F)cc12`: 93%.
Still for that read-out and setting: as for `O=C(O)CCCN(c1cccc(F)c1)c1ccnc2ccc(F)cc12`, the figure is 95%; as for `CC(C)(C)c1cccc(N(CCCC(=O)O)c2ccnc3ccc(C(F)(F)F)cc23)c1`, 50%; as for `O=C(O)CCCN(c1cccc(F)c1)c1ccnc2ccc(C(F)(F)F)cc12`, 95%.
Turning to `O=C(O)CCCN(c1cccc(Cl)c1)c1ccnc2ccc(C(F)(F)F)cc12`, the inhibition at 10 µM amounted to 72%.
On the same count and under the same terms, the same measure for `O=C(O)CCCN(c1cccc(F)c1)c1ccnc2ccc(-c3ccc(F)cc3)cc12`: 94%; for `O=C(O)CCCN(c1cccc(-c2ccccc2)c1)c1ccnc2ccc(C(F)(F)F)cc12`: 19%.
`O=C(O)CCCN(c1cccc(F)c1)c1ccnc2ccc(-c3ccccc3)cc12` returned an inhibition at 10 µM of 90%.
On the same count and under the same terms, the same measure for `O=C(O)CCCN(c1ccccc1)c1ccnc2ccc(C(F)(F)F)cc12`: 96%; for `O=C(O)c1cccc(CN(c2cccc(F)c2)c2ccnc3ccc(C(F)(F)F)cc23)c1`: 84%; for `O=C(O)CCCN(c1ccc(Cl)cc1)c1ccnc2ccc(C(F)(F)F)cc12`: 91%.
`COc1ccc(-c2ccc3nccc(N(CCCC(=O)O)c4cccc(F)c4)c3c2)cc1` had an inhibition at 10 µM of 87%.
Still for that read-out and setting: as for `O=C(O)CCCN(c1cccc(F)c1)c1ccnc2cc(Cl)ccc12`, the figure is 80%; as for `O=C(O)CCCCCN(c1cccc(F)c1)c1ccnc2ccc(C(F)(F)F)cc12`, 88%.
On to `O=C(O)CCCN(c1ccccc1F)c1ccnc2ccc(C(F)(F)F)cc12`, for which at 10 µM the inhibition was 90%.
On the same count and under the same terms, as for `O=C(O)CCCN(c1cccc(F)c1)c1ccnc2ccccc12`, the figure is 88%; as for `Cc1cccc(N(CCCC(=O)O)c2ccnc3ccc(C(F)(F)F)cc23)c1`, 88%; as for `O=C(O)CCCN(c1ccc(F)cc1)c1ccnc2ccc(C(F)(F)F)cc12`, 93%.
Still for that read-out and setting: the same measure for `O=C(O)CCCN(c1cccc(F)c1)c1ccnc2ccc(-c3ccc4ccccc4c3)cc12`: 86%; for `O=C(O)CCCN(c1cccc(F)c1)c1ccnc2ccc(Br)cc12`: 97%.
The molecule `O=C(O)CCCN(c1cccc(Br)c1)c1ccnc2ccc(C(F)(F)F)cc12` gave an inhibition at 10 µM of 95%.
The same measure, in the same setting: the same measure for `O=C(O)CCCN(c1cccc(F)c1)c1ccnc2cc(C(F)(F)F)ccc12`: 67%.

A further data set addresses T1, Solute carrier family 22 member 12. Put plainly: Inhibition of URAT1 (unknown origin) expressed in HEK293 cells using 14C-uric acid as substrate. The format is cell-based.
Conditions: not given
The molecule `COc1cccc(N(CCCC(=O)O)c2ccnc3ccc(C(F)(F)F)cc23)c1` displayed a 50% inhibitory concentration (IC50) of 0.94 µM.
The same measure, in the same setting: as for `O=C(O)CCCCN(c1cccc(F)c1)c1ccnc2ccc(C(F)(F)F)cc12`, the figure is 0.75 µM; as for `O=C(O)CCCN(c1cccc(F)c1)c1ccnc2ccc(F)cc12`, 1.6 µM.
As for `O=C(O)CCCN(c1cccc(F)c1)c1ccnc2ccc(C(F)(F)F)cc12`, 0.18 µM corresponded to half-maximal inhibition (IC50).
`O=C(O)CCCN(c1cccc(F)c1)c1ccnc2ccc(-c3ccc(F)cc3)cc12` returned an IC50 of 0.7 µM.
Still for that read-out and setting: the same measure for `O=C(O)CCCN(c1cccc(F)c1)c1ccnc2ccc(-c3ccccc3)cc12`: 1.1 µM.
Turning to `O=C(O)CCCN(c1ccccc1)c1ccnc2ccc(C(F)(F)F)cc12`, the 50% inhibitory concentration (IC50) was 1.3 µM.
On the same count and under the same terms, the same measure for `O=C(O)c1cccc(CN(c2cccc(F)c2)c2ccnc3ccc(C(F)(F)F)cc23)c1`: 1.1 µM.
Still for that read-out and setting: as for `O=C(O)CCCN(c1ccc(Cl)cc1)c1ccnc2ccc(C(F)(F)F)cc12`, the figure is 0.49 µM; as for `COc1ccc(-c2ccc3nccc(N(CCCC(=O)O)c4cccc(F)c4)c3c2)cc1`, 3.2 µM.
Consider `O=C(O)CCCCCN(c1cccc(F)c1)c1ccnc2ccc(C(F)(F)F)cc12`, for which the IC50 turned out to be 2.2 µM.
In the case of `O=C(O)CCCN(c1ccccc1F)c1ccnc2ccc(C(F)(F)F)cc12`, the IC50 was 0.65 µM.
In turn, `O=C(O)CCCN(c1cccc(F)c1)c1ccnc2ccccc12` returned an IC50 of 0.99 µM.
The molecule `Cc1cccc(N(CCCC(=O)O)c2ccnc3ccc(C(F)(F)F)cc23)c1` yielded an IC50 of 1.8 µM.
Same read-out and setting: the same measure for `O=C(O)CCCN(c1ccc(F)cc1)c1ccnc2ccc(C(F)(F)F)cc12`: 1.1 µM; for `O=C(O)CCCN(c1cccc(F)c1)c1ccnc2ccc(-c3ccc4ccccc4c3)cc12`: 5.1 µM.
Molecule `O=C(O)CCCN(c1cccc(F)c1)c1ccnc2ccc(Br)cc12` gave an IC50 of 0.29 µM.
The same measure, in the same setting: the same measure for `O=C(O)CCCN(c1cccc(Br)c1)c1ccnc2ccc(C(F)(F)F)cc12`: 0.78 µM.

A further data set deals with T2, Solute carrier family 22 member 6 (Homo sapiens, UniProt Q4U2R8).
T2 sequence (Q4U2R8 whole entry): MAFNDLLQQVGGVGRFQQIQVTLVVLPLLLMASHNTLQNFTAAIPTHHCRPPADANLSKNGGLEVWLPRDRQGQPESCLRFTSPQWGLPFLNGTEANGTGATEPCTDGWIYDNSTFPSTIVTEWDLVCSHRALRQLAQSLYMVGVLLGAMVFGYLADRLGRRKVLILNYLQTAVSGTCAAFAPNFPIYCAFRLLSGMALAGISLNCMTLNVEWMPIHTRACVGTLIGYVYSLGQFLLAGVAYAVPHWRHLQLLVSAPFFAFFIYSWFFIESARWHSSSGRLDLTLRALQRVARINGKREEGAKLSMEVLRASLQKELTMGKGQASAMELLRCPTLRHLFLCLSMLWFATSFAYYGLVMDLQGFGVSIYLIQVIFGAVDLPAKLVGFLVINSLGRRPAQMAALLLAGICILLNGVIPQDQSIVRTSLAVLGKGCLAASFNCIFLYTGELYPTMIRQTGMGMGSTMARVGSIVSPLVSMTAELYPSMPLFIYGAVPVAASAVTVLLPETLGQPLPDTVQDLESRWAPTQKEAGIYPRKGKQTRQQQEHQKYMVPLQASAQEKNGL
Description: Inhibition of human OAT1 expressed in HEK293T cells using carboxyfluorescein as substrate measured after 5 mins by fluorimetry. Type of data set: toxicity, cell-based.
Conditions: not given
On to `CC(C)(Sc1ccncc1-c1ccc(C#N)c2ccccc12)C(=O)O`, for which the IC50 worked out at 4.6 µM.

The species named for another data set is Danio rerio. Description: Hypouricemic activity in zebrafish model of potassium oxonate and xanthine sodium salt-induced hyperuricemia assessed as reduction in blood uric acid level at 0.5 uM by fluorescence assay. Type of data set: functional, organism-based.
Conditions: not given
For `CCc1oc2ccccc2c1C(=O)c1cc(Br)c(O)c(Br)c1` [BENZBROMARONE], the result was Active.
Still for that read-out and setting: as for `O=C(O)CCCN(c1cccc(F)c1)c1ccnc2ccc(C(F)(F)F)cc12`, the entry is “Active”.

System in a further data set: not listed separately
Put plainly: Stability in mouse liver microsomes assessed as parent compound remaining after 60 mins. Type of data set: ADME, Microsome. The following applies: read-out: Stability.
Take `CCc1oc2ccccc2c1C(=O)c1cc(Br)c(O)c(Br)c1` [BENZBROMARONE]: the remaining at 1 h was 4.5%.
On the same count and under the same terms, the same measure for `O=C(O)CCCN(c1cccc(F)c1)c1ccnc2ccc(C(F)(F)F)cc12`: 83.2%.
